# Measured values published in patent US20240287007A1, “N-(1,3,4-OXADIAZOL-2-YL)PHENYLCARBOXAMIDES AS HERBICIDES” (BAYER AKTIENGESELLSCHAFT, priority 2021, published 2024).
# Tests used:
# Type in all cases: in vivo
# [1] = test system: POLCO (Polygonum convolvulus); assay: Pre-emergence herbicidal effect against POLCO; conditions: 80 g/ha, scored visually after 3 weeks
# Excerpt: (§1) Seeds of monocotyledonous and dicotyledonous weed plants and crop plants are laid out in sandy loam soil in wood-fiber pots and covered with soil. The compounds of the invention, formulated in the form of wettable powders (WP) or as emulsion concentrates (EC), are then applied to the surface of the covering soil as aqueous suspension or emulsion at a water application rate equating to 600 to 800 l/ha with addition of 0.2% wetting agent. After the treatment, the pots are placed in a greenhouse and kept under good growth conditions for the trial plants. The damage to the test plants is scored visually after a test period of 3 weeks by comparison with untreated controls (herbicidal activity in percent (%): 100% activity=the plants have died, 0% activity=like control plants).
# VIOTR (Viola tricolor) [2] = assay: Post-emergence herbicidal action against VIOTR; conditions: visual assessment after about 3 weeks
# Experimental: (§2) Seeds of monocotyledonous and dicotyledonous weed and crop plants are laid out in sandy loam soil in wood-fiber pots, covered with soil and cultivated in a greenhouse under good growth conditions. 2 to 3 weeks after sowing, the trial plants are treated at the one-leaf stage. The compounds of the invention, formulated in the form of wettable powders (WP) or as emulsion concentrates (EC), are then sprayed onto the green parts of the plants as aqueous suspension or emulsion at a water application rate equating to 600 to 800 l/ha with addition of 0.2% wetting agent. After the test plants have been left to stand in the greenhouse under optimal growth conditions for about 3 weeks, the action of the preparations is assessed visually in comparison to untreated controls (herbicidal action in percent (%): 100% activity=the plants have died, 0% activity=like control plants).
# [3] = test system: AMARE (Amaranthus retroflexus); assay: Post-emergence herbicidal action against AMARE; conditions: visual assessment after about 3 weeks
# Experimental: as §2
# SETVI (Setaria viridis) [4] = assay: Post-emergence herbicidal action against SETVI; conditions: visual assessment after about 3 weeks
# Experimental: as §2
# SETVI (Setaria viridis) [5] = assay: Pre-emergence herbicidal effect against SETVI; conditions: 80 g/ha, scored visually after 3 weeks
# Excerpt: as §1
# KCHSC (Kochia scoparia) [6] = assay: Post-emergence herbicidal action against KCHSC; conditions: visual assessment after about 3 weeks
# Experimental: as §2
# [7] = test system: DIGSA (Digitaria sanguinalis); assay: Post-emergence herbicidal action against DIGSA; conditions: visual assessment after about 3 weeks
# Experimental: as §2
# [8] = test system: ECHCG (Echinochloa crus-galli); assay: Pre-emergence herbicidal effect against ECHCG; conditions: 80 g/ha, scored visually after 3 weeks
# Excerpt: as §1
# [9] = test system: DIGSA (Digitaria sanguinalis); assay: Pre-emergence herbicidal effect against DIGSA; conditions: scored visually after 3 weeks
# Excerpt: as §1
# VIOTR (Viola tricolor) [10] = assay: Pre-emergence herbicidal effect against VIOTR; conditions: scored visually after 3 weeks
# Excerpt: as §1
# KCHSC (Kochia scoparia) [11] = assay: Pre-emergence herbicidal effect against KCHSC; conditions: scored visually after 3 weeks
# Excerpt: as §1
# [12] = test system: AMARE (Amaranthus retroflexus); assay: Pre-emergence herbicidal effect against AMARE; conditions: scored visually after 3 weeks
# Excerpt: as §1
# [13] = test system: ABUTH (Abutylon threophrasti); assay: Pre-emergence herbicidal effect against ABUTH; conditions: scored visually after 3 weeks
# Excerpt: as §1
# [14] = test system: ABUTH (Abutylon threophrasti); assay: Post-emergence herbicidal action against ABUTH; conditions: 80 g/ha, visual assessment after about 3 weeks
# Experimental: as §2
# VERPE (Veronica persica) = assay: Post-emergence herbicidal action against VERPE; conditions: 80 g/ha, visual assessment after about 3 weeks
# Experimental: as §2
# [15] = test system: MATIN (Matricaria inodora); assay: Post-emergence herbicidal action against MATIN; conditions: visual assessment after about 3 weeks
# Experimental: as §2
# [16] = test system: PHBPU (Pharbitis purpurea); assay: Post-emergence herbicidal action against PHBPU; conditions: visual assessment after about 3 weeks
# Experimental: as §2
SMILES,Post-emergence effect at 20 g/ha against VIOTR in % (VIOTR (Viola tricolor) [2]),Post-emergence effect at 80 g/ha against VIOTR in % (VIOTR (Viola tricolor) [2]),Post-emergence effect at 20 g/ha against AMARE in % [3],Post-emergence effect at 80 g/ha against AMARE in % [3],Post-emergence effect at 20 g/ha against SETVI in % (SETVI (Setaria viridis) [4]),Post-emergence effect at 80 g/ha against SETVI in % (SETVI (Setaria viridis) [4]),Pre-emergence effect at 80 g/ha against SETVI in % (SETVI (Setaria viridis) [5]),Post-emergence effect at 20 g/ha against KCHSC in % (KCHSC (Kochia scoparia) [6]),Post-emergence effect at 80 g/ha against KCHSC in % (KCHSC (Kochia scoparia) [6]),Post-emergence effect at 20 g/ha against DIGSA in % [7],Post-emergence effect at 80 g/ha against DIGSA in % [7],Pre-emergence effect at 80 g/ha against ECHCG in % [8],Pre-emergence effect at 20 g/ha against DIGSA in % [9],Pre-emergence effect at 80 g/ha against DIGSA in % [9],Pre-emergence effect at 20 g/ha against VIOTR in % (VIOTR (Viola tricolor) [10]),Pre-emergence effect at 80 g/ha against VIOTR in % (VIOTR (Viola tricolor) [10]),Pre-emergence effect at 20 g/ha against KCHSC in % (KCHSC (Kochia scoparia) [11]),Pre-emergence effect at 80 g/ha against KCHSC in % (KCHSC (Kochia scoparia) [11]),Pre-emergence effect at 80 g/ha against AMARE in % [12],Pre-emergence effect at 80 g/ha against ABUTH in % [13],further results
"CSc1c(OC(F)F)ccc(C(=O)Nc2nnco2)c1Cl [Example 1-21, 2-chloro-4-(difluoromethoxy)-3-(methylsulfanyl)-N-(1,3,4-oxadiazol-2-yl)benzamide]",100%,100%,100%,100%,80%,100%,90%,90%,100%,90%,90%,100%,90%,100%,100%,100%,90%,90%,100%,100%,Pre-emergence effect at 80 g/ha against POLCO in % [1]: 100%; Pre-emergence effect at 20 g/ha against AMARE in % ([12]; 20 g/ha): 90%; Post-emergence effect at 80 g/ha against ABUTH in % [14]: 80%
"CSc1c(OC(F)(F)F)ccc(C(=O)Nc2nnco2)c1Cl [Example 1-31, 2-chloro-3-(methylsulfanyl)-N-(1,3,4-oxadiazol-2-yl)-4-(trifluoromethoxy)benzamide]",90%,100%,100%,100%,80%,90%,100%,100%,100%,90%,90%,100%,90%,100%,90%,90%,90%,100%,100%,100%,Post-emergence effect at 80 g/ha against VERPE in % (VERPE (Veronica persica)): 80%; Post-emergence effect at 20 g/ha against MATIN in % ([15]; 20 g/ha): 80%; Post-emergence effect at 80 g/ha against MATIN in % ([15]; 80 g/ha): 90%; Pre-emergence effect at 20 g/ha against ABUTH in % ([13]; 20 g/ha): 90%; Post-emergence effect at 20 g/ha against PHBPU in % ([16]; 20 g/ha): 90%; Post-emergence effect at 80 g/ha against PHBPU in % ([16]; 80 g/ha): 90%; Post-emergence effect at 80 g/ha against ABUTH in % [14]: 90%
